The target in assay [1] is T1, Proprotein convertase subtilisin/kexin type 7 (Homo sapiens) (UniProt Q16549).
T1 sequence (whole entry): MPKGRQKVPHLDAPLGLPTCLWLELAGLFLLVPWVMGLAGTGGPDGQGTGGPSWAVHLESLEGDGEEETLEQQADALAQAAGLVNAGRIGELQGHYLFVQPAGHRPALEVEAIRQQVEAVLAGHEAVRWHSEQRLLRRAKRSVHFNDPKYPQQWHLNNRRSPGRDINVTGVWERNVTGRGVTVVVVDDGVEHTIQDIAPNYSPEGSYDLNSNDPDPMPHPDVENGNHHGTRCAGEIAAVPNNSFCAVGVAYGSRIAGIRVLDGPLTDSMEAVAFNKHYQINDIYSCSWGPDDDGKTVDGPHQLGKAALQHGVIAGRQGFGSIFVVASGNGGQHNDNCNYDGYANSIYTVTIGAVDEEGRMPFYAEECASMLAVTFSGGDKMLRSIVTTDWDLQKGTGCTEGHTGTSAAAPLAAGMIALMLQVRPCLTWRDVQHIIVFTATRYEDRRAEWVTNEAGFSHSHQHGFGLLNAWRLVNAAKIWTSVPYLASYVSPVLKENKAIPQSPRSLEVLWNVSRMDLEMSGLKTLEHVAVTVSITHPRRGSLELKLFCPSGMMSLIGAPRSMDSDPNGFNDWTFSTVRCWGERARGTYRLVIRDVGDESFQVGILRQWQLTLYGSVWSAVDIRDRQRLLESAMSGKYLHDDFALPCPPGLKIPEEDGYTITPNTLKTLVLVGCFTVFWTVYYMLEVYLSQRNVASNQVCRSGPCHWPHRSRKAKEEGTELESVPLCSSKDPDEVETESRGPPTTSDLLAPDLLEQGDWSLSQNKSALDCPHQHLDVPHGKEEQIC
As to the kind of experiment: Inhibition of recombinant type 8 subtilisin using Arg-Glu-(EDANS)- Ser-Gln-Asn-Tyr-Pro-Ile-Val-Gln-Lys-(DALBCYL)-Arg fluorogenic substrate at 0.001 ug/ml preincubated for 1 hr measured after 1 hr at 1 min interval by fluorescence assay.

A short description of assay [2]: Inhibition of pepsin from porcine gastric mucosa using Arg-Glu-(EDANS)- Ser-Gln-Asn-Tyr-Pro-Ile-Val-Gln-Lys-(DALBCYL)-Arg fluorogenic substrate preincubated for 1 hr measured after 1 hr at 1 min interval by fluorescence assay. Details: species or system Sus scrofa.
Assay [3] deals with T1, Proprotein convertase subtilisin/kexin type 7 (Homo sapiens). As to the kind of experiment: Inhibition of recombinant type 8 subtilisin using Arg-Glu-(EDANS)- Ser-Gln-Asn-Tyr-Pro-Ile-Val-Gln-Lys-(DALBCYL)-Arg fluorogenic substrate at 1 ug/ml preincubated for 1 hr measured after 1 hr at 1 min interval by fluorescence assay.
For assay [4] the target is unchanged. As to the kind of experiment: Inhibition of recombinant type 8 subtilisin using Arg-Glu-(EDANS)- Ser-Gln-Asn-Tyr-Pro-Ile-Val-Gln-Lys-(DALBCYL)-Arg fluorogenic substrate at 0.01 ug/ml preincubated for 1 hr measured after 1 hr at 1 min interval by fluorescence assay.
Assay [5] has the same target. As to the kind of experiment: Inhibition of recombinant type 8 subtilisin using Arg-Glu-(EDANS)- Ser-Gln-Asn-Tyr-Pro-Ile-Val-Gln-Lys-(DALBCYL)-Arg fluorogenic substrate at 0.1 ug/ml preincubated for 1 hr measured after 1 hr at 1 min interval by fluorescence assay.

pIC50: −log10 of the molar value.

On to `C=C(CO)[C@@]12O[C@@H]1[C@@]1(C)C(=CC2=O)[C@H](OC(=O)C(O)(CO)CC(C)CC(C)CC)CC[C@@H]1C` (stereo partly drawn) [XYLARENONE D], for which the inhibition in assay [1], in assay [3], in assay [4] and in assay [5] was under 10% throughout. The pIC50 (commonly the negative decadic logarithm of the IC50, by convention in mol/L) in assay [2] is 3.94.
Consider `C=C(CO)[C@@]12O[C@@H]1[C@@]1(C)C(=CC2=O)[C@H](OC(=O)C(O)(CO)CC(C)CC(C)C(C)O)CC[C@@H]1C` (stereo partly drawn) [XYLARENONE E], for which the inhibition in assay [1], in assay [3], in assay [4] and in assay [5] was under 10% throughout. Further, the pIC50 in assay [2] is 3.90.
In the case of `C=C(CO)[C@@]12O[C@@H]1[C@@]1(C)C(=CC2=O)[C@H](O)CC[C@@H]1C` [XYLARENONE A], the inhibition in assay [1], in assay [3], in assay [4] and in assay [5] was under 10% each time. The compound also gave a pIC50 in assay [2] of 5.61.
Take `O=c1oc2ccccc2c(O)c1Cc1c(O)c2ccccc2oc1=O` [DICUMAROL]: in assay [2], the pIC50 is 5.34.
On the same count and under the same terms, under `CC(=O)CC(c1ccccc1)c1c(O)c2ccccc2oc1=O` (stereo not drawn) [WARFARIN] stands 8.08.
On to `C=C(CO)[C@@]12O[C@@H]1[C@@]1(C)C(=CC2=O)[C@H](OC(=O)C(C)CC(C)CC(C)CC)CC[C@@H]1C` (stereo partly drawn) [XYLARENONE C], for which the negative-log IC50 (pIC50) in assay [2] was 6.54.
